What is called logP is the decadic logarithm of the partition coefficient of the neutral form, usually between octanol and water. A higher logP goes with higher lipophilicity. A word on the Papp A→B: it is the apparent permeability from the apical to the basolateral side of a cell layer. A lower Papp A→B goes with poor permeation. Usually Papp B→A stands for how fast a substance crosses the layer from the basolateral side.

This note sets out measurements from ChEMBL document CHEMBL1134667, “Physicochemical determinants of passive membrane permeability: role of solute hydrogen-bonding potential and volume” (J Med Chem, 2001).

Data set [1] in a line: Partition coefficient (logP) (heptane). Conditions: heptane/water.
Data set [2] in a line: Partition coefficient (logP) (heptane/glycol). Particulars: heptane/ethylene glycol.
Data set [3] can be described thus: Apical to basolateral effective permeability. Particulars: not told.
Data set [4] in a line: Partition coefficient (logP). Conditions: octanol/water.
Data set [5] can be described thus: Basolateral to apical effective permeability. Particulars: not told.

As for `CC(=O)NCC(=O)NCCc1ccccc1`, the logP in data set [1] was -3.73; in data set [2], -5; in data set [4], 0.48. Also, the Papp A→B in data set [3] came to 219 nm/s. The molecule also came in with a Papp B→A in data set [5] of 206 nm/s.
`CC(=O)N[C@H](CC1CCCCC1)C(=O)NCCc1ccccc1`: the logP in data set [1] was -0.9; in data set [2], -3.41; in data set [4] it was 3.13. In addition, the Papp A→B in data set [3] turned out to be 583 nm/s. Moreover, in data set [5], the apparent permeability from basolateral to apical (Papp B→A) was 584 nm/s.
For the molecule `CC(=O)N[C@@H](C(=O)NCCc1ccccc1)C(C)C`, the log partition coefficient (logP) in data set [1] was -2.64; in data set [2] it was -3.77; in data set [4], 1.59.
As for `CNC(=O)[C@@H](Cc1ccccc1)NC(=O)[C@H](NC(C)=O)C(C)C`, the logP was -5.33 in data set [1], -5.79 in data set [2] and 0.66 in data set [4]. Moreover, in data set [3], the Papp A→B was 9.1 nm/s. The Papp B→A in data set [5] worked out at 18.4 nm/s.
Take `CC(=O)N[C@H](Cc1ccccc1)C(=O)NCCc1ccccc1`: the logP in data set [1] is -2; in data set [2] it was -3.7; in data set [4], 2.32.
